This experiment concerns the target T1, recombinant human NK3 receptor (Homo sapiens, UniProt P29371).
T1 construct: expressed in transfected cells; host or cells: HEK293 cells, transient expression; membranes
T1 sequence (P29371 1-465): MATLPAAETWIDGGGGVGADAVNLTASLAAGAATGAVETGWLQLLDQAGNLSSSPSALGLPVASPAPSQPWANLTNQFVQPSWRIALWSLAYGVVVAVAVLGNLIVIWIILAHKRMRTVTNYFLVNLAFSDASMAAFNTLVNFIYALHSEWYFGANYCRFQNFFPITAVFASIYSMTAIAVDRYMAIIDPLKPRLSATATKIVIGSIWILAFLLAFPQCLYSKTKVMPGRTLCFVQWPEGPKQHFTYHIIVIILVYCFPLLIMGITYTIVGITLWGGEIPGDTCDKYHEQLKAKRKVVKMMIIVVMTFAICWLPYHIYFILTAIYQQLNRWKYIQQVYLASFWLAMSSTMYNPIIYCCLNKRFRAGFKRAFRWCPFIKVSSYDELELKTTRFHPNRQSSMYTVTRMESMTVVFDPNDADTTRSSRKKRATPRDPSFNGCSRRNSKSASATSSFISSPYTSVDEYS
The experiment is described as follows: [3H]SR142801 competition binding assay.

Where two headings read alike, the source gives them in different places.

Broadly, the Ki is the equilibrium dissociation constant of an inhibitor or competing ligand from its target. In the case of `CN(C(=O)O[C@H]1C[C@H]2CC[C@@H]1C2)[C@H]1CN(C(=O)C2CCN(C(=O)C3(C)CC3)CC2)C[C@@H]1c1ccc(Cl)c(Cl)c1` (mixture of isomers) [Example 68, {(3R,4S)-4-(3,4-Dichloro-phenyl)-1-[1-(1-methyl-cyclopropanecarbonyl)-piperidine-4-carbonyl]-pyrrolidin-3-yl}-methyl-carbamic acid (1R,2S,4S)-bicyclo[2.2.1]hept-2-yl ester and {(3S,4R)-4-(3,4-Dichloro-phenyl)-1-[1-(1-methyl-cyclopropanecarbonyl)-piperidine-4-carbonyl]-pyrrolidin-3-yl}-methyl-carbamic acid (1R,2S,4S)-bicyclo[2.2.1]hept-2-yl ester], the Ki was determined as 62.6 nM.
Take `CN(C(=O)O[C@@H]1C[C@H]2CC[C@@H]1C2)[C@H]1CN(C(=O)C2CCN(C(=O)C3(C)CC3)CC2)C[C@@H]1c1ccc(Cl)c(Cl)c1` (mixture of isomers) [Example 69, {(3R,4S)-4-(3,4-Dichloro-phenyl)-1-[1-(1-methyl-cyclopropanecarbonyl)-piperidine-4-carbonyl]-pyrrolidin-3-yl}-methyl-carbamic acid (1R,2R,4S)-bicyclo[2.2.1]hept-2-yl ester and {(3S,4R)-4-(3,4-Dichloro-phenyl)-1-[1-(1-methyl-cyclopropanecarbonyl)-piperidine-4-carbonyl]-pyrrolidin-3-yl}-methyl-carbamic acid (1R,2R,4S)-bicyclo[2.2.1]hept-2-yl ester]: the Ki was 7.6 nM.
On the same count and under the same terms, under `CN(C(=O)Oc1ccc(F)cc1)[C@H]1CN(C(=O)C2CCN(C(=O)C3(C)CC3)CC2)C[C@@H]1c1ccc(Cl)c(Cl)c1` (racemic) [Example 2, rac-{(3R,4S)-4-(3,4-Dichloro-phenyl)-1-[1-(1-methyl-cyclopropanecarbonyl)-piperidine-4-carbonyl]-pyrrolidin-3-yl}-methyl-carbamic acid 4-fluoro-phenyl ester] stands 0.4 nM; under `CN(C(=O)Oc1ccc(F)cc1)[C@H]1CN(C(=O)C2CCN(CC3CC3)CC2)C[C@@H]1c1ccc(Cl)c(Cl)c1` (racemic) [Example 4, rac-[(3R,4S)-1-(1-Cyclopropylmethyl-piperidine-4-carbonyl)-4-(3,4-dichloro-phenyl)-pyrrolidin-3-yl]-methyl-carbamic acid 4-fluoro-phenyl ester], 1.8 nM.
`CN(C(=O)Oc1ccccc1)[C@H]1CN(C(=O)C2CCN(CC3CC3)CC2)C[C@@H]1c1ccc(Cl)c(Cl)c1` (racemic) [Example 7, rac-[(3R,4S)-1-(1-Cyclopropylmethyl-piperidine-4-carbonyl)-4-(3,4-dichloro-phenyl)-pyrrolidin-3-yl]-methyl-carbamic acid phenyl ester]: the inhibition constant (Ki) turned out to be 9.6 nM.
On the same count and under the same terms, to `Cc1ccc(OC(=O)N(C)[C@H]2CN(C(=O)C3CCN(CC4CC4)CC3)C[C@@H]2c2ccc(Cl)c(Cl)c2)cc1` (racemic) [Example 8, rac-[(3R,4S)-1-(1-Cyclopropylmethyl-piperidine-4-carbonyl)-4-(3,4-dichloro-phenyl)-pyrrolidin-3-yl]-methyl-carbamic acid p-tolyl ester] belongs 4 nM; to `COc1ccc(OC(=O)N(C)[C@H]2CN(C(=O)C3CCN(CC4CC4)CC3)C[C@@H]2c2ccc(Cl)c(Cl)c2)cc1` (racemic) [Example 9, rac-[(3R,4S)-1-(1-Cyclopropylmethyl-piperidine-4-carbonyl)-4-(3,4-dichloro-phenyl)-pyrrolidin-3-yl]-methyl-carbamic acid 4-methoxy-phenyl ester], 13.6 nM; to `CN(C(=O)Oc1ccc(Cl)cc1)[C@H]1CN(C(=O)C2CCN(CC3CC3)CC2)C[C@@H]1c1ccc(Cl)c(Cl)c1` (racemic) [Example 10, rac-[(3R,4S)-1-(1-Cyclopropylmethyl-piperidine-4-carbonyl)-4-(3,4-dichloro-phenyl)-pyrrolidin-3-yl]-methyl-carbamic acid 4-chloro-phenyl ester], 1.5 nM.
On the same count and under the same terms, under `CCCCOC(=O)N(C)[C@H]1CN(C(=O)C2CCN(CC3CC3)CC2)C[C@@H]1c1ccc(Cl)c(Cl)c1` (racemic) [Example 11, rac-[(3R,4S)-1-(1-Cyclopropylmethyl-piperidine-4-carbonyl)-4-(3,4-dichloro-phenyl)-pyrrolidin-3-yl]-methyl-carbamic acid butyl ester] stands 27.1 nM; under `CN(C(=O)Oc1ccc(Cl)cc1)[C@H]1CN(C(=O)C2CCN(C(=O)C3(C)CC3)CC2)C[C@@H]1c1ccc(Cl)c(Cl)c1` (racemic) [Example 12, rac-{(3R,4S)-4-(3,4-Dichloro-phenyl)-1-[1-(1-methyl-cyclopropanecarbonyl)-piperidine-4-carbonyl]-pyrrolidin-3-yl}-methyl-carbamic acid 4-chloro-phenyl ester], 0.6 nM.
The same measure, in the same setting: to `CN(C(=O)Oc1ccccc1)[C@H]1CN(C(=O)C2CCN(C(=O)C3(C)CC3)CC2)C[C@@H]1c1ccc(Cl)c(Cl)c1` (racemic) [Example 13, rac-{(3R,4S)-4-(3,4-Dichloro-phenyl)-1-[1-(1-methyl-cyclopropanecarbonyl)-piperidine-4-carbonyl]-pyrrolidin-3-yl}-methyl-carbamic acid phenyl ester] belongs 2 nM; to `Cc1ccc(OC(=O)N(C)[C@H]2CN(C(=O)C3CCN(C(=O)C4(C)CC4)CC3)C[C@@H]2c2ccc(Cl)c(Cl)c2)cc1` (racemic) [Example 14, rac-{(3R,4S)-4-(3,4-Dichloro-phenyl)-1-[1-(1-methyl-cyclopropanecarbonyl)-piperidine-4-carbonyl]-pyrrolidin-3-yl}-methyl-carbamic acid p-tolyl ester], 1.2 nM; to `COc1ccc(OC(=O)N(C)[C@H]2CN(C(=O)C3CCN(C(=O)C4(C)CC4)CC3)C[C@@H]2c2ccc(Cl)c(Cl)c2)cc1` (racemic) [Example 15, rac-{(3R,4S)-4-(3,4-Dichloro-phenyl)-1-[1-(1-methyl-cyclopropanecarbonyl)-piperidine-4-carbonyl]-pyrrolidin-3-yl}-methyl-carbamic acid p-methoxyphenyl ester], 2.5 nM.
In the case of `CN(C(=O)OCC(C)(C)C)[C@H]1CN(C(=O)C2CCN(C(=O)C3(C)CC3)CC2)C[C@@H]1c1ccc(Cl)c(Cl)c1` (racemic) [Example 22, rac-{(3R,4S)-4-(3,4-Dichloro-phenyl)-1-[1-(1-methyl-cyclopropanecarbonyl)-piperidine-4-carbonyl]-pyrrolidin-3-yl}-methyl-carbamic acid 2,2-dimethyl-propyl ester], the Ki is 16.9 nM.
On the same count and under the same terms, under `CN(C(=O)OCC1CC1)[C@H]1CN(C(=O)C2CCN(C(=O)C3(C)CC3)CC2)C[C@@H]1c1ccc(Cl)c(Cl)c1` (racemic) [Example 24, rac-{(3R,4S)-4-(3,4-Dichloro-phenyl)-1-[1-(1-methyl-cyclopropanecarbonyl)-piperidine-4-carbonyl]-pyrrolidin-3-yl}-methyl-carbamic acid cyclopropylmethyl ester] stands 33.5 nM.
For the compound `CN(C(=O)OCCC1CC1)[C@H]1CN(C(=O)C2CCN(C(=O)C3(C)CC3)CC2)C[C@@H]1c1ccc(Cl)c(Cl)c1` (racemic) [Example 25, rac-{(3R,4S)-4-(3,4-Dichloro-phenyl)-1-[1-(1-methyl-cyclopropanecarbonyl)-piperidine-4-arbonyl]-pyrrolidin-3-yl}-methyl-carbamic acid 2-cyclopropyl-ethyl ester], the Ki (hNK-3 receptor affinity, membranes from HEK293 cells transiently expressing recombinant human NK3 receptor, [3H]SR142801, Cheng-Prussoff, read-out: Data Ki) was determined as 5.4 nM.
As for `CN(C(=O)Oc1ccc(F)cc1)[C@H]1CN(C(=O)C2CCN(C(=O)C3(C)CC3)CC2)C[C@@H]1c1ccc(Cl)cc1` (racemic) [Example 26, rac-{(3R,4S)-4-(4-Chloro-phenyl)-1-[1-(1-methyl-cyclopropanecarbonyl)-piperidine-4-carbonyl]-pyrrolidin-3-yl}-methyl-carbamic acid 4-fluoro-phenyl ester], the Ki was found to be 2.9 nM.
On to `CCCCOC(=O)N(C)[C@H]1CN(C(=O)C2CCN(C(=O)C3(C)CC3)CC2)C[C@@H]1c1ccc(Cl)cc1` (racemic) [Example 27, rac-{(3R,4S)-4-(4-Chloro-phenyl)-1-[1-(1-methyl-cyclopropanecarbonyl)-piperidine-4-carbonyl]-pyrrolidin-3-yl}-methyl-carbamic acid butyl ester], for which the Ki was 30.7 nM.
On the same count and under the same terms, to `CN(C(=O)OCCC(C)(C)C)[C@H]1CN(C(=O)C2CCN(C(=O)C3(C)CC3)CC2)C[C@@H]1c1ccc(Cl)c(Cl)c1` (racemic) [Example 30, rac-{(3R,4S)-4-(3,4-Dichloro-phenyl)-1-[1-(1-methyl-cyclopropanecarbonyl)-piperidine-4-carbonyl]-pyrrolidin-3-yl}-methyl-carbamic acid 3,3-dimethyl-butyl ester] belongs 10.3 nM; to `CN(C(=O)OCC1CCOCC1)[C@H]1CN(C(=O)C2CCN(C(=O)C3(C)CC3)CC2)C[C@@H]1c1ccc(Cl)c(Cl)c1` (racemic) [Example 31, rac-{(3R,4S)-4-(3,4-Dichloro-phenyl)-1-[1-(1-methyl-cyclopropanecarbonyl)-piperidine-4-carbonyl]-pyrrolidin-3-yl}-methyl-carbamic acid tetrahydro-pyran-4-ylmethyl ester], 11.6 nM.

For the origin of these results see patent US9226916B2, “Pyrrolidine derivatives” (HOFFMANN-LA ROCHE INC., priority 2009, dated 2016).
